Experiments:
HL cells = assay: Toxicity towards the host cells, Trypan blue staining, no infection; assay type: cell-based, human
Procedure: The determination was performed as in the previous tests but without any infection. The viability was determined with Trypan blue staining.

[1] = test system: C. pneumoniae K7 strain (clinical isolate); assay: Direct anti-chlamydial effect (inhibition of formation of inclusions), HL host cells; assay type: cell-based; details: host cells incubated 1 day with compound before infection
C. trachomatis = assay: Direct anti-chlamydial effect on C. trachomatis, cultivation in McCoy cells; assay type: cell-based; details: for Inhibition % of the DMSO control: McCoy cells; for Inhibition % of the DMSO control (pre-treated): McCoy cells pre-treated 1 day
Procedure: C. trachomatis, cultivation in McCoy cells. The test procedure otherwise the same as with C. pneumoniae.
(§1) As the host cell of C. pneumoniae in in vitro conditions HL cells are used. As the host cells of C. trachomatis in in vitro conditions McCoy cells often are used.
(§2) On the day preceding the infection the host cells are inoculated on a 24-well plate: the cells are harvested by trypsinisation, they are suspended in ca. 5 ml of the nutrition liquid and counted in a Burker's chamber. Each well are seeded using a concentration of 250000-400000 cells/well for cultivation. Before the addition of the cells to the well is if necessary round cover glass (diameter 13 mm) put for staining. Nutrition liquid is added so that the volume is 1 ml/well. On the following day the cells are infected with the desired bacterium.
(§3) Solution to be used in the infection and containing chlamydiae particles is mixed throughout. The old nutrition liquid is aspirated away. By the infection the inoculum which has been stored at −70° C. is diluted to an IFU concentration of ca. 10^3 so that the volume of the solution is at least 200 μl/well on a 24-well plate. The cells are infected by centrifuging at 1600 rpm (550×g)/1 hr. The nutrition medium is aspirated away and changed to a maintenance medium containing cyclohexamide and also containing the studied compound (DMSO concentration 0.2%), 1 ml/well. The cells are incubated in a 5% CO2 atmosphere at +35° C. The cells infected with C. pneumoniae are incubated for 3 days. After 2-3 days the maintenance medium is removed and the cells washed with 1×1 ml of PBS. To the wells 200 μl of SPG are added for further infection, harvested with a pipette tip and transferred into tubes. This is used for infecting new cells in the same way as above to test the inhibition of infectivity (chlamydiasidic effect).
(§4) The nutrition medium, which is above the cover glass left for staining, is aspirated away. The infected cells are fixed on the cover glass with methanol for 10 min. The cover glass is removed from the well and -transferred onto a suitable fluorescein-conjugated monoclonal antibody on Parafilm in a moist chamber with the cell-containing side down. The cover glass is incubated for 30 min at +37° C. and washed twice with PBS and once with water. Finally it is dried. The cover glass is put with the cell-containing side down on an object glass containing a fixative (e.g. Mounting medium). When viewed under the fluorescent microscope, cell culture specimens infacted with chlamydiae show a characteristic apple-green fluorescence of inclusions against a red counterstained background.

C. pneumoniae [2] = assay: Direct anti-chlamydial effect of compounds and mixtures on C. pneumoniae (Example 5); assay type: cell-based; details: 50 μM
[3] = Antioxidant effect, IC50 against DPPH; assay type: biochemical; details: read-out: IC50 [moles L^−1] against DPPH′
Excerpt: (§5) In the following Table I some of the preferred plant-derived phenolic compounds according to the present invention, the effect of the compounds on the calcium influx to the cell, the antioxidant effect as well as the chemical structure of the compounds are presented.

[4] = test system: C. pneumoniae K7 strain (clinical isolate); assay: Direct anti-chlamydial effect (inhibition of formation of inclusions), HL host cells; assay type: cell-based; details: for Inhibition % of the DMSO control: formation of inclusions
Excerpt: The Direct Anti-Chlamydial Effect of Plant-Derived Phenolic Compounds (As Inhibition of Formation of Inclusions)/C. pneumoniae K7 Strain (Clinical Isolate)
The cultivated HL cells are infected with C. pneumoniae EB's. The EB's which have invaded the cell are changed into the metabolically active reticulate body (RB) which are dividing by binary fission in the endosome vacuole or inclusion.
After a certain time (about 72 hr) the C. pneumoniae RB's are condensing back into EB's, after which the inclusions are broken, the host cells are broken and the EB's are liberated. In this method the intention is to verify the inclusions before the breaking up of the host cells.
as §1, §2, §3, §4

Ca^2+ intake in the cell = assay: Effect of the compounds on the calcium influx (Ca2+ intake) to the cell; assay type: cell-based; details: compound 20 μg/ml; − = decrease, + = increase
Excerpt: as §5

C. pneumoniae [5] = assay: Inhibition of the infectivity (chlamydiasidic effect), re-infection of new cells; assay type: cell-based; details: for Inhibition % of the DMSO control (pre-treated): host cells pre-treated 1 day
Procedure: Inhibition of the Infectivity/C. pneumoniae
as §3, §4

COc1cc(O)c2c(=O)c(O)c(-c3ccc(O)c(O)c3)oc2c1 [Rhamnetin]
Toxicity test HL-C (HL cells; 0.005 μM): 10.9% | Toxicity test HL-C (pre-treated) (HL cells; 0.005 μM): 6.6% | Toxicity test HL-C (HL cells; 0.05 μM): 9.5% | Toxicity test HL-C (pre-treated) (HL cells; 0.05 μM): 7.6% | Toxicity test HL-C (HL cells; 0.5 μM): 10.0% | Toxicity test HL-C (pre-treated) (HL cells; 0.5 μM): 10.6% | Toxicity test HL-C (HL cells; 5 μM): 9.6% | Toxicity test HL-C (pre-treated) (HL cells; 5 μM): 8.0% | Toxicity test HL-C (HL cells; 50 μM): 15.7% | Toxicity test HL-C (pre-treated) (HL cells; 50 μM): 16.9% | Inhibition % of the DMSO control (pre-treated) ([1]; 0.5 μM): 50% | Inhibition % of the DMSO control (pre-treated) ([1]; 50 μM): 59% | Inhibition % of the DMSO control (C. trachomatis; 0.5 μM): 0% | Inhibition % of the DMSO control (pre-treated) (C. trachomatis; 0.5 μM): 17% | Inhibition % of the DMSO control (C. trachomatis; 50 μM): 0% | Inhibition % of the DMSO control (pre-treated) (C. trachomatis; 50 μM): 100% | Effect on C. trachomatis (in words) (C. trachomatis; pretreated host cells): particularly effective | Inhibition % (C. pneumoniae [2]): 100% | IC50 [3]: 12.1 µM | Inhibition % of the DMSO control ([4]; 0.5 μM): 73% | Inhibition % of the DMSO control ([4]; 50 μM): 99% | Inhibition of the growth of C. pneumoniae (in words) ([4]; concentration of 0.5-50 μg): inhibited the growth | Effect on Ca^2+ intake [%] (Ca^2+ intake in the cell): +6.63% | Inhibition % of the DMSO control (C. pneumoniae [5]; 0.5 μM): 100% | Inhibition % of the DMSO control (pre-treated) (C. pneumoniae [5]; 0.5 μM): 75% | Inhibition % of the DMSO control (C. pneumoniae [5]; 50 μM): 100% | Inhibition % of the DMSO control (pre-treated) (C. pneumoniae [5]; 50 μM): 67%
